Measured values taken from paper PMC4220732 (Frontiers in Cellular and Infection Microbiology, 2014).

Molecular target: T1, PefR (GAS PefR) (Streptococcus pyogenes, UniProt Q9A1K6)
T1 construct: gene SPy_0228; full ORF, N-terminal 6xHis tag (pRham N-His, pAJS11), tag cleavage not mentioned; expressed in E. coli (E. cloni 10G); as purified carries some heme
Test: UV-visible absorbance titration at […] nm, linear fit
Type: binding

T1 sequence (Q9A1K6 entry or part of it): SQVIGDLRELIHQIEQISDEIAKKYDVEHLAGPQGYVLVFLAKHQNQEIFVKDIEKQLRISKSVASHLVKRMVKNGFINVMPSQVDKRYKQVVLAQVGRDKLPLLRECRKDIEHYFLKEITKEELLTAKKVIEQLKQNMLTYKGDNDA

## C=CC1=C(C)c2cc3[nH]c(cc4nc(cc5[nH]c(cc1n2)c(C)c5CCC(=O)O)C(CCC(=O)O)=C4C)c(C)c3C=C [PPIX]
  Kd: 9 µM
